Laboratory results as given in paper PMC11750622, “Structural insights into translocation and tailored synthesis of hyaluronan” (Nature Structural & Molecular Biology, 2024).

Legend:
CvHAS [1] = conditions: acceptor (primer) site; UDP-GlcA and Mn2+ present; nanodisc with Nb881 and Nb872; catalytically inactive mutant
CvHAS [2] = biological target: T1, CvHAS (Paramecium bursaria Chlorella virus CZ-2, UniProt Z9D3Q5ADJ6); test: cryo-EM structure, […] Å; assay type: binding; conditions: formed in situ from GlcNAc and UDP-GlcA; Mn2+; nanodisc with Nb881 and Nb872; also with UDP in 8SNE (3.0 Å)
T1 construct: pET28a-CvHAS, Ni-NTA purified, expressed in E. coli C43; MSP1E3D1 nanodiscs with nanobodies for cryo-EM, IMVs for activity
T1 sequence (Z9D3Q5ADJ6 1-562): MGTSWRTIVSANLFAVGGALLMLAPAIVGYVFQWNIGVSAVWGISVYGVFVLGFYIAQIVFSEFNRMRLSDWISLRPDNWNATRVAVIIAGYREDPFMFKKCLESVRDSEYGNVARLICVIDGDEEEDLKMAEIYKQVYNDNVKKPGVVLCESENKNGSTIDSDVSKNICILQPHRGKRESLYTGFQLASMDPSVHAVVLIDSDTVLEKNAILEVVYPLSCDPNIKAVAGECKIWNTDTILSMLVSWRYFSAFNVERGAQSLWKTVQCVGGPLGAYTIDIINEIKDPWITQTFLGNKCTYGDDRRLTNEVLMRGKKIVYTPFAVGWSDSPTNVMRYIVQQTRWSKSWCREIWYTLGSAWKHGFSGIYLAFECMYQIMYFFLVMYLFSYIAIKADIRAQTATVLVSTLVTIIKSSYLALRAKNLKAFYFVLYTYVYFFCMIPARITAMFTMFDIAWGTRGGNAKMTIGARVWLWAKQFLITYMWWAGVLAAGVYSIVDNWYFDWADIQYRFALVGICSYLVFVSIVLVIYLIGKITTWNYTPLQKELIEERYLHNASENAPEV

CvHAS [3] = biological target: T1, CvHAS; test: cryo-EM structure, […] Å; assay type: binding; conditions: formed in situ from UDP-GlcNAc and UDP-GlcA; Mn2+; nanodisc with Nb886 and Nb872; minor UDP-GlcA state not excluded
XlHAS1 = biological target: T2, XlHAS1 (Xenopus laevis, UniProt P13563); test: cryo-EM structure, […] Å; assay type: binding; conditions: Mg2+; Fab complex in GDN; gating loop inserted; active site
T2 construct: gene has1; full-length, N-terminal 12xHis tag, expressed in Sf9 cells, purified in GDN detergent, monomer
T2 sequence (P13563 1-588): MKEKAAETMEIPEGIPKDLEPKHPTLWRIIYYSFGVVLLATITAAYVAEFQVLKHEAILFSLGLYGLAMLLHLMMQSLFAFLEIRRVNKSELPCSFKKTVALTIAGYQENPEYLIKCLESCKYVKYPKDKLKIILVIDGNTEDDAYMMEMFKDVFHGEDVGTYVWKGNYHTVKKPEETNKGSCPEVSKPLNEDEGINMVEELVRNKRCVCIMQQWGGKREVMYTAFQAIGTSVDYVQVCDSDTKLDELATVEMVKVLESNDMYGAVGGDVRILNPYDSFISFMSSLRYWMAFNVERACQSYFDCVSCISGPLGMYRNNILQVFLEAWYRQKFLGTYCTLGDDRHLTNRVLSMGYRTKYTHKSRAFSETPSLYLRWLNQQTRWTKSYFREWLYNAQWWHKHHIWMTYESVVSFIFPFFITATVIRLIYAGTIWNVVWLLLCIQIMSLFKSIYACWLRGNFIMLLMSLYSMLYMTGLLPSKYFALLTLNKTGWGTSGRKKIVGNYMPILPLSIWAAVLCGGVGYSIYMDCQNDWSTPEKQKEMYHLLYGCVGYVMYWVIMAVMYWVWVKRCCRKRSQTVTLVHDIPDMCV

[4] = biological target: T3, Xenopus laevis HAS isoform 1 (Xenopus laevis, UniProt P13563); test: cryo-EM structure; GDN-solubilised XlHAS1 mixed with Fab at a 1:4 molar ratio, overnight at 4 °C, SEC on Superose 6 in 0.01% GDN; apo, HA-bound and UDP-bound samples; conditions: both partners purified
T3 construct: also called XlHAS1; DG42

Molecule: CC(=O)N[C@H]1C(O)O[C@H](CO)[C@@H](O)[C@@H]1O (some centres unmarked) [GlcNAc]
- cryo-EM structure, 3.2 Å (CvHAS [1]): the GlcNAc primer is well resolved and occupies the same acceptor position

Molecule: CC(=O)N[C@H]1C(O)O[C@H](CO)[C@@H](O)[C@@H]1O[C@@H]1O[C@H](C(=O)O)[C@@H](O)[C@H](O)[C@H]1O (some centres unmarked) [HA disaccharide]
- cryo-EM structure, 3.3 Å (CvHAS [2]): resolves a GlcNAc at the acceptor position that is elongated by a single sugar unit

Molecule: O=c1ccn([C@@H]2O[C@H](COP(=O)(O)OP(=O)(O)O)[C@@H](O)[C@H]2O)c(=O)[nH]1 [UDP]
- cryo-EM structure, 3.0 Å (CvHAS [3]): exposure of WT CvHAS to both of its substrates resulted in a UDP–HA disaccharide-bound conformation
- cryo-EM structure, 3.2 Å (XlHAS1): UDP is coordinated by conserved motifs of the GT domain

B1: noninhibitory antibody Fab fragment against XlHAS1 (Fab, V domains shown)
VH: EVQLVESGGGLVQPGGSLRLSCAASGFNVSSYYIHWVRQAPGKGLEWVASISSSSGSTSYADSVKGRFTISADTSKNTAYLQMNSLRAEDTAVYYCARSGYYWGPYFGGFDYWGQGTLVTVSS
VL: DIQMTQSPSSLSASVGDRVTITCRASQSVSSAVAWYQQKPGKAPKLLIYSASSLYSGVPSRFSGSRSGTDFTLTISSLQPEDFATYYCQQSSSSLITFGQGTKVEIK
notes: source: selected from Fab phage library E on XlHAS1 nanodiscs
- binding result [4]: binds
